The text below walks through data of ChEMBL document CHEMBL1140178, “Design, synthesis, and biological evaluation of novel constrained meta-substituted phenyl propanoic acids as peroxisome proliferator-activated receptor alpha and gamma dual agonists” (J Med Chem, 2008).

For data set [1], the target named is T1, Peroxisome proliferator-activated receptor alpha (Homo sapiens, UniProt Q07869).
T1 sequence (Q07869 whole entry): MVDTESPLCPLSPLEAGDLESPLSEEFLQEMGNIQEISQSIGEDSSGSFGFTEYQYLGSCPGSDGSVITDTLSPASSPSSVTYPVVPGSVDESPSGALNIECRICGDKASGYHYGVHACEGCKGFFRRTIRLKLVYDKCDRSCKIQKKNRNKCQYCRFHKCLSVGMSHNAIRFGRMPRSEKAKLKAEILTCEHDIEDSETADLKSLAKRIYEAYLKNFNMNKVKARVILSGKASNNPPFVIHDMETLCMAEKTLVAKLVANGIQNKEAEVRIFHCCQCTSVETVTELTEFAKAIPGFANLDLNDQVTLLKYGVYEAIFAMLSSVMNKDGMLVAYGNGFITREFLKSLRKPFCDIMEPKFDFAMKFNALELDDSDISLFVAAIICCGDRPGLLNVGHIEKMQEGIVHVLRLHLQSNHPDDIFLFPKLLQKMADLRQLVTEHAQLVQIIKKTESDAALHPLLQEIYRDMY
In words: (§1) Agonist activity at human PPARalpha ligand binding domain expressed in african green monkey CV1 cells co-transfected with fused Gal4-DBD by transactivation assay. Format: cell-based, CV-1.

Data set [2] deals with T2, Peroxisome proliferator-activated receptor alpha (Homo sapiens) (UniProt Q07869).
T2 sequence (whole entry): T1 sequence (Q07869 whole entry)
Put plainly: Agonist activity at human PPARalpha ligand binding domain expressed in african green monkey CV1 cells co-transfected with fused Gal4-DBD by transactivation assay relative to gemfibrozil. Format: cell-based. The conditions noted are these: CV-1.

In data set [3] the target is T3, Peroxisome proliferator-activated receptor gamma (Homo sapiens, UniProt P37231).
T3 sequence (P37231 whole entry): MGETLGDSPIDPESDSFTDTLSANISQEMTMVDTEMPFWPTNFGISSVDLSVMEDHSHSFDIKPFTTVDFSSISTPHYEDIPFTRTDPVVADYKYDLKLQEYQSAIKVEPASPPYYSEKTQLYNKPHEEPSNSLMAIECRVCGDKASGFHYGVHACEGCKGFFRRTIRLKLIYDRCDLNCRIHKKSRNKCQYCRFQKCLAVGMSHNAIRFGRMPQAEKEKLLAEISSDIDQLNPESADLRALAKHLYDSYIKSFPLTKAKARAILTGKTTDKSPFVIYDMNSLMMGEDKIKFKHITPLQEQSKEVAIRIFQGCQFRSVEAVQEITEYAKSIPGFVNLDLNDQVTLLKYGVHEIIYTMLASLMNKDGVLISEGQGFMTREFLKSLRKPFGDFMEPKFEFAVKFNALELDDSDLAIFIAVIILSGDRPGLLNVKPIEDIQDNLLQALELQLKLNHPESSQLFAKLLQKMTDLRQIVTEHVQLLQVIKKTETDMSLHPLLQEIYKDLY
Description: Agonist activity at human PPARgamma ligand binding domain expressed in african green monkey CV1 cells co-transfected with fused Gal4-DBD by transactivation assay

Data set [4] deals with T2, Peroxisome proliferator-activated receptor alpha (Homo sapiens). The description is as §1. Type of data set: cell-based. The settings on record: CV-1.
The test system of data set [5] is Mus musculus. Put plainly: Antihyperglycemic effect in db/db mouse assessed as inhibition of blood glucose at 20 mg/kg, po after 5 days. Type of data set: functional. The conditions noted are these: 120 h.
In the next data set the test system is CV-1. Put plainly: Ratio of EC50 for human PPARalpha ligand binding domain expressed in african green monkey CV1 cells to EC50 for human PPARgamma ligand binding domain expressed in african green monkey CV1 cells. Type of data set: cell-based.
For data set [6], the system named is Mus musculus. Put plainly: Antihyperglycemic effect in db/db mouse assessed as inhibition of blood glucose at 3 mg/kg, po after 4 days. The conditions noted are these: 96 h. Type of data set: functional.
For data set [7], the system named is Mus musculus. Put plainly: Antihyperglycemic effect in db/db mouse assessed as inhibition of blood glucose at 3 mg/kg, po after 7 days. Type of data set: functional. The settings on record: 168 h.
In data set [8] the test system is Mus musculus. Put plainly: Antihyperglycemic effect in db/db mouse assessed as inhibition of blood glucose at 3 mg/kg, po after 11 days. The settings on record: 264 h. Format: functional.
For data set [9], the system named is Mus musculus. In words: Toxicity in db/db mouse assessed as weight gain at 3 mg/kg, po after 4 days. The conditions noted are these: in vivo, 96 h. Type of data set: organism-based. Further details: dose 3 mg/kg, route oral.
The subject of data set [10] is Mus musculus. Put plainly: Toxicity in db/db mouse assessed as weight gain at 3 mg/kg, po after 7 days. Type of data set: organism-based. Further details: dose 3 mg/kg, route oral. The settings on record: in vivo, 168 h.
Data set [11] relates to Mus musculus. In words: Toxicity in db/db mouse assessed as weight gain at 3 mg/kg, po after 11 days. Type of data set: organism-based. Further details: dose 3 mg/kg, route oral. The settings on record: in vivo, 264 h.
The subject of data set [12] is Mus musculus. Put plainly: Antihyperglycemic effect in db/db mouse assessed as inhibition of blood glucose at 3 mg/kg, po after 5 days. Format: functional. The conditions noted are these: 120 h.

Active and inactive are the calls of the source. No cut-off for these calls is given here.

As a reminder, the EC50 is the concentration giving half of the maximal effect. As usually defined, the inhibition in vivo is the percentage by which the read-out fell short of the control.

As to `CCO[C@@H](Cc1cccc(/C(C)=N/OCc2ccc(Br)cc2)c1)C(=O)O`, the EC50 in data set [1] was 2.7 µM; in data set [3] it was 0.036 µM. In data set [2], this compound registered an Emax of 150%.
Turning to `CCO[C@@H](Cc1cccc(/C(C)=N/OCc2ccc(OC)cc2)c1)C(=O)O`, the EC50 in data set [1] worked out at 4.06 µM; in data set [3] it was 0.175 µM. Besides, the Emax in data set [2] amounted to 179%.
For `CCO[C@H](Cc1cccc(C2=NOC(c3ccccc3)C2)c1)C(=O)O` (stereo partly drawn), in data set [4], the outcome was inactive. Further, the inhibition in vivo at 20 mg/kg in the data set on Mus musculus [5] is 3%. This compound also had an EC50 in [3] of 25.4 µM.
Take `Cc1ccc(C)c(OCCCC(C)(C)C(=O)O)c1`: in [2], the Emax is 100%.
With `CCO[C@H](Cc1cccc(/C(C)=N/OCc2ccccc2)c1)C(=O)O`, the result in data set [4] was inactive. Further, the Emax in data set [2] amounted to 8%. For the same compound, the inhibition in vivo at 20 mg/kg in the data set with Mus musculus [5] is 22.3%. Further, a half-maximal effect in data set [3] (EC50) was put at 1.89 µM.
Consider `CCO[C@@H](Cc1cccc(/C(C)=N/OCc2ccc(I)cc2)c1)C(=O)O`, for which the concentration giving a half-maximal response (EC50) in data set [1] amounted to 0.674 µM; in data set [3] it was 0.04 µM. The Emax in data set [2] worked out at 139%.
In data set [2], `CN(CCOc1ccc(CC2SC(=O)NC2=O)cc1)c1ccccn1` (stereo not drawn) came in with an Emax of 56%.
In the case of `CCO[C@@H](Cc1cccc(/C(C)=N/OCc2cccc(Cl)c2)c1)C(=O)O`, the EC50 in data set [1] was 2.27 µM; in data set [3], 0.01 µM. Besides, in data set [2], the Emax came to 165%. The Ratio EC50 in the data set on CV-1 stood at 227.
For `CCO[C@@H](Cc1cccc(/C(C)=N/OCc2ccc(C(C)(C)C)cc2)c1)C(=O)O`, the figures for the 50% effective concentration (EC50) in [1] and in [3] were 12.1 µM and 0.279 µM, respectively. Besides, in data set [2], the Emax was determined as 137%.
On to `CCO[C@H](Cc1cccc(-c2cc(-c3ccccc3)on2)c1)C(=O)O`, for which the EC50 was determined as 30.4 µM in data set [1] and 37.4 µM in data set [3]. Moreover, the Emax in [2] came out at 48%.
`CCO[C@@H](Cc1cccc(/C(C)=N/OCc2ccc(C(F)(F)F)cc2)c1)C(=O)O`: the EC50 in [1] amounted to 2.95 µM; in data set [3], 0.046 µM. For the same compound, in [2], the Emax came to 185%.
Turning to `CCO[C@@H](Cc1cccc(C2=NOC(Cc3ccccc3)C2)c1)C(=O)O` (stereo partly drawn), the EC50 stood at 21.6 µM in [1] and 6.93 µM in data set [3]. The Emax in data set [2] was 104%. The Ratio EC50 in the data set with CV-1 is 3.1.
As for `COc1ccc(OC(=O)N(CC(=O)O)Cc2ccc(OCCc3nc(-c4ccccc4)oc3C)cc2)cc1` [MURAGLITAZAR], the inhibition in vivo at 3 mg/kg in the data set with Mus musculus [6] is 53%; with Mus musculus [7], 67%; in the data set with Mus musculus [8], 68%. For the same compound, the Activity came out at 2 g in the data set with Mus musculus [9], 3.6 g in the data set with Mus musculus [10] and 6.3 g with Mus musculus [11].
As to `CCO[C@@H](Cc1cccc(/C(C)=N/OCc2ccc(OS(C)(=O)=O)cc2)c1)C(=O)O`, the EC50 was determined as 13.1 µM in data set [1] and 1.61 µM in [3]. In data set [2], this compound showed an Emax of 165%.
As to `CCO[C@@H](Cc1cccc(C2=NOC(c3ccc(Cl)cc3)C2)c1)C(=O)O` (stereo partly drawn), the figures for the EC50 in [1] and in data set [3] were 6.78 µM and 0.816 µM, respectively. Further, the Emax in data set [2] was determined as 125%. Further, in the data set with Mus musculus [12], the inhibition in vivo at 3 mg/kg amounted to 41.7%.
On to `CCO[C@@H](Cc1cccc(C2=NOC(CCc3ccccc3)C2)c1)C(=O)O` (stereo partly drawn), for which the EC50 in data set [1] is 3.08 µM; in [3] it was 1.85 µM. The same compound returned an Emax in [2] of 262%. Besides, the Ratio EC50 in the data set with CV-1 was determined as 1.7.
`CCO[C@@H](Cc1ccc(OCCc2ccc(OS(C)(=O)=O)cc2)cc1)C(=O)O` had an Emax in data set [2] of 94%.
Consider `CCO[C@@H](Cc1cccc(C2=NOC(c3ccc(C(C)(C)C)cc3)C2)c1)C(=O)O` (stereo partly drawn), for which the figures for the EC50 in data set [1] and in [3] were 3.95 µM and 2.73 µM, respectively. Besides, the Emax in data set [2] was 138%.
Consider `CCO[C@@H](Cc1cccc(C2=NOC(c3ccc(OS(C)(=O)=O)cc3)C2)c1)C(=O)O` (stereo partly drawn), for which the values for the EC50 in data set [1] and in data set [3] were 37.4 µM and 28.1 µM, respectively. In addition, the Emax in data set [2] amounted to 107%.
Regarding `CCO[C@@H](Cc1cccc(C2=NOC(c3ccccc3)C2)c1)C(=O)O` (stereo partly drawn), the figures for the EC50 in [1] and in data set [3] were 3.99 µM and 0.22 µM, respectively. Further, in data set [2], the Emax is 78%. In the data set on CV-1, the Ratio EC50 turned out to be 18. For the same compound, in the data set with Mus musculus [5], the inhibition in vivo at 20 mg/kg was 27%.
For the compound `CCO[C@@H](Cc1cccc(/C(C)=N/OCc2ccc(O)cc2)c1)C(=O)O`, the EC50 stood at 58.8 µM in data set [1] and 2.94 µM in data set [3]. This compound also registered an Emax in data set [2] of 58%.
With `CCO[C@@H](Cc1cccc(/C(C)=N/OCc2ccccc2)c1)C(=O)O`, the EC50 in [1] was 2.91 µM; in data set [3], 0.121 µM. Also, the Emax in data set [2] turned out to be 71%.
With `CCO[C@@H](Cc1cccc(/C(C)=N/OCc2ccccc2Cl)c1)C(=O)O`, the EC50 in data set [1] came to 3.26 µM; in [3] it was 0.026 µM. This compound yielded an Emax in data set [2] of 143%. Moreover, the Ratio EC50 with CV-1 is 126.
Take `CCO[C@@H](Cc1cccc(C2=NOC(c3ccc(F)cc3)C2)c1)C(=O)O` (stereo partly drawn): the EC50 amounted to 24.4 µM in data set [1] and 1.16 µM in data set [3]. Further, the Emax in data set [2] worked out at 119%.
For `CCO[C@@H](Cc1cccc(C2=NOC(c3ccc(Br)cc3)C2)c1)C(=O)O` (stereo partly drawn), the EC50 in data set [1] stood at 4.39 µM; in data set [3] it was 0.74 µM. This compound yielded an Emax in data set [2] of 144%.
Regarding `CCO[C@H](Cc1cccc(C2=NOC(Cc3ccccc3)C2)c1)C(=O)O` (stereo partly drawn), the result in data set [4] was inactive. The Emax in data set [2] is 6%. Moreover, the EC50 in data set [3] was 41.4 µM.
For the compound `CCO[C@H](Cc1cccc(C2=NOC(CCc3ccccc3)C2)c1)C(=O)O` (stereo partly drawn), the EC50 in data set [1] came to 44.5 µM; in [3] it was 25.1 µM. The Emax in data set [2] turned out to be 217%. Also, in the data set on CV-1, the Ratio EC50 turned out to be 1.8.
As for `CCO[C@@H](Cc1cccc(-c2cc(-c3ccccc3)on2)c1)C(=O)O`, the EC50 in data set [1] came to 5.6 µM; in [3], 3.29 µM. Besides, the Emax in data set [2] amounted to 162%.
Compound `CCO[C@@H](Cc1cccc(C2=NOC(c3ccc(O)cc3)C2)c1)C(=O)O` (stereo partly drawn) gave an Emax in [2] of 0%. Besides, the response in [3] was half-maximal at 38.6 µM (EC50).
In the case of `CCO[C@@H](Cc1cccc(C2=NOC(c3ccc(OC)cc3)C2)c1)C(=O)O` (stereo partly drawn), the EC50 in data set [1] worked out at 11.3 µM; in data set [3], 3.19 µM. The Emax in data set [2] turned out to be 156%.
Take `CCO[C@@H](Cc1cccc(C2=NOC(c3ccc(I)cc3)C2)c1)C(=O)O` (stereo partly drawn): the figures for the EC50 in [1] and in data set [3] were 2.76 µM and 0.606 µM, respectively. Also, in data set [2], the Emax was found to be 162%.
